# From PMC6323635 (Journal of natural products, 2016)
# “Also recorded” adds a separate entry of the source. Like-named read-outs stand apart in the source and are kept apart here.
# Tests used:
# [1] = test system: tumor growth in xenograft models; settings: cited from earlier work
# COLO 205 cells = experiment: CCK-8 cytotoxicity assay under hypoxic conditions; assay type: cell-based; settings: for Cell death in COLO 205 cells: up to concentrations of 10 μM, hypoxia; for IC50: read-out: IC50 value (μM) ± SEM, COLO 205 (48 h, 0.5% O2), COLO 205, 48 h, 0.5% O2, CCK-8
# [2] = test system: HIF-1α transcriptional activity in COLO 205 cells; experiment: HIF reporter assay; assay type: cell-based, human
# DNA topoisomerase II = settings: cited from earlier work
# HIF-1α/p300 = HIF-1α/p300 (Homo sapiens, UniProt Q09472); experiment: HIF-1α/p300 screening assay; assay type: binding
# [3] = test system: HIF-1α transcriptional activity in HCT 116 cells; experiment: HIF reporter assay; assay type: cell-based
# [4] = test system: VEGF secretion in HCT 116 cells; experiment: VEGF ELISA; assay type: cell-based, human; settings: for Hypoxia-induced VEGF secretion in HCT 116 cells: 48 h, 0.5% O2, concentrations active in HIF reporter assay
# HCT 116 cells [5] = settings: cited from earlier work
# [6] = test system: VEGF secretion in LNCaP cells; experiment: VEGF ELISA; assay type: cell-based, human; settings: 18 h, 1% O2
# [7] = test system: ENO1, VEGF, and LDHA mRNA expression in PC3 prostate cancer cells; settings: cited from earlier work
# HCT 116 cells [8] = settings: cited from earlier work; remark: listed apart in the source
# HCT 116 cells [9] = experiment: CCK-8 cytotoxicity assay under hypoxic conditions; assay type: cell-based, human; settings: 0.5% O2, CCK-8
# LNCaP cells = experiment: CCK-8 cytotoxicity assay under hypoxic conditions; assay type: cell-based, human; settings: read-out: IC50 value (μM) ± SEM, LNCaP (18 h, 1% O2), 1% O2, CCK-8
# [10] = test system: HIF-1α transcriptional activity in LNCaP cells; experiment: HIF reporter assay; assay type: cell-based, human
# [11] = read-out: IC50 value (μM) ± SD, HIF-1α/p300 screening assay, cell-free assay, ± SD
# [12] = read-out: IC50 value (μM) ± SEM, HCT 116 (18 h, 0.5% O2), HCT 116, 18 h
# Sequence of HIF-1α/p300 (Q09472 331-417 limits assumed): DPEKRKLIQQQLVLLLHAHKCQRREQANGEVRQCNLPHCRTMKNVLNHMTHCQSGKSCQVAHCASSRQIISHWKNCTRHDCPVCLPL
molecule,measurement,setting,value
"O=C1CC2SC3CC2(C=C1Br)C1=C(N3)C(=O)c2[nH]cc3c2C1=NCC3 (single isomer, unassigned; (+)) [compound 6, (+)-discorhabdin A]",Tumor growth in xenograft models,[1],did not reduce tumor growth
"O=C1C(NC2Cc3cc(Br)c(O)cc3S2)=CC2=NCCc3c[nH]c1c32 (single isomer, unassigned; (-)) [compound 5, (−)-makaluvamine F]",Cell death in COLO 205 cells,COLO 205 cells,did not cause substantial cell death
same,"Concentrations causing significant inhibition of luciferase activity, COLO 205","[2]; p < 0.05, 18 h, 0.5% O2",no effect
same,Inhibition of DNA topoisomerase II,DNA topoisomerase II,inhibit DNA topoisomerase II
"CN1C(=O)[C@]2(Cc3cn([C@]45C[C@@]67SS[C@@](CO)(C(=O)N6[C@H]4Nc4ccccc45)N(C)C7=O)c4ccccc34)SS[C@@]1(CO)C(=O)N2C [chetomin, reference compound]",IC50,HIF-1α/p300,1.9 ± 0.5 µM
"O=C1C=C2S[C@H]3C[C@]2(C=C1Br)C1=C(N3)C(=O)c2[nH]cc3c2C1=NCC3 [compound 1, (+)-discorhabdin B]","Concentrations causing significant inhibition of luciferase activity, COLO 205","[2]; p < 0.05, 18 h, 0.5% O2",no effect
same,Tumor growth in xenograft models,[1],did not reduce tumor growth
"O=C1C=C(S[C@H]2[C@H]3C(=O)C=C4S[C@H]5C[C@]42C2=C(N5)C(=O)c4[nH]cc5c4C2=[N+]3CC5)[C@]2(C=C1Br)CCNC1=C2C2=NCCc3c[nH]c(c32)C1=O [compound 2, (−)-discorhabdin B dimer]",Cell death in COLO 205 cells,COLO 205 cells,did not cause substantial cell death
same,Effect on HIF-1α transcriptional (reporter) activity in HCT 116 cells,"[3]; in words, 18 h, 0.5% O2",most potent at decreasing reporter activity
same,"Concentrations causing significant inhibition of luciferase activity, COLO 205","[2]; p < 0.05, 18 h, 0.5% O2",no effect
same,Trend in VEGF secretion in HCT 116 cells,"[4]; 0.1–0.25 μM, 18 h and 48 h",statistically nonsignificant trend in the decrease
same,Hypoxia-induced VEGF secretion in HCT 116 cells,[4],none of these compounds significantly reduced
"O=C1C2=C(C3=NCCc4c[nH]c1c43)[C@]1(C=C(Br)[C@H](O)C(Br)=C1)CCN2 [compound 3, 3-dihydrodiscorhabdin C]","Concentrations causing significant inhibition of luciferase activity, COLO 205","[2]; p < 0.05, 18 h, 0.5% O2",no effect
same,"IC50 values, cytotoxicity in HCT 116 cells",HCT 116 cells [5],lower micromolar range
"O=C1C2=C3C4=[N+](CCc5c[nH]c1c54)[C@H]1C[C@@]34C[C@@H](N2)SC4=CC1=O [compound 7, (−)-discorhabdin D]",Antitumor activity in vivo,[1],the only reported discorhabdin with such activity
"O=C1C2=C3C4=[N+](CCc5c[nH]c1c54)[C@@H]1C(=O)C=C4S[C@@H](C[C@@]43[C@H]1O)N2 [compound 9, (−)-discorhabdin L]","Concentrations causing significant inhibition of luciferase activity, COLO 205","[2]; p < 0.05, 18 h, 0.5% O2",no effect
same,VEGF concentrations in LNCaP cells,[6]; 0.25–1 μM,borderline significant decrease
same,Hypoxia-induced VEGF secretion in HCT 116 cells,[4],none of these compounds significantly reduced
CN1C(=O)[C@]23CC4=CC=C[C@H](O)[C@H]4N2C(=O)[C@@]1(CO)SS3 [gliotoxin],"ENO1, VEGF, and LDHA mRNA expression in PC3 prostate cancer cells",[7],lowered
same,Effects on HIF target mRNA expression in HCT 116 cells,HCT 116 cells [8],no effects
(+)-discorhabdin G*/I [compound 4],"IC50 values, cytotoxicity in HCT 116 cells",HCT 116 cells [5],lower micromolar range
(−)-discorhabdin H [compound 8],IC50,HIF-1α/p300; [11],2.2 ± 0.6 µM
same,IC50,HCT 116 cells [9]; [12],> 10 µM
same,IC50,"HCT 116 cells [9]; read-out: IC50 value (μM) ± SEM, HCT 116 (48 h, 0.5% O2), HCT 116, 48 h",> 50 µM
same,IC50,LNCaP cells,> 10 µM
same,IC50,COLO 205 cells,> 10 µM
same,Cell death in COLO 205 cells,COLO 205 cells,did not cause substantial cell death
same,"Concentrations causing significant inhibition of luciferase activity, LNCaP","[10]; p < 0.05, 18 h, 1% O2, superscript a = >50% cell death in CCK-8 assay",0.1 µM
same,"Concentrations causing significant inhibition of luciferase activity, COLO 205","[2]; p < 0.05, 18 h, 0.5% O2",no effect
same,VEGF secretion in LNCaP cells,[6]; 0.5 μM,significant decrease; also recorded: significantly decreased
same,Hypoxia-induced VEGF secretion in HCT 116 cells,[4],none of these compounds significantly reduced
(−)-discorhabdin W [compound 11],Activity in the screening assay,HIF-1α/p300; in words,no activity
same,IC50,HIF-1α/p300; [11],> 100 µM
same,IC50,HCT 116 cells [9]; [12],> 10 µM
same,IC50,LNCaP cells,> 10 µM
same,IC50,COLO 205 cells,> 10 µM
same,Cell death in COLO 205 cells,COLO 205 cells,did not cause substantial cell death
same,Effect on HIF-1α transcriptional (reporter) activity in HCT 116 cells,[3],reduced HIF reporter activity
same,Activity in HIF reporter assay in LNCaP cells,[10],did not show activity
same,"Concentrations causing significant inhibition of luciferase activity, LNCaP",[10],no effect
same,"Concentrations causing significant inhibition of luciferase activity, COLO 205",[2],no effect
